These results are taken from patent US20080207684A1, “Kinase inhibitors and methods for using the same” (Roche Palo Alto LLC, priority 2007, published 2008).

The target of this assay is T1, p38 MAP kinase (Homo sapiens, UniProt Q16539).
T1 construct: made in house; host or cells: E. coli (co-expressed with SEK-1 and MEKK)
Description: p38 (MAP) kinase in vitro assay (transfer of γ-33P from ATP to Myelin Basic Protein). Particulars: phosphorylated recombinant p38 MAP kinase, MBP substrate, γ-33P-ATP, 30° C. Format: biochemical. The method, then:
This example illustrates a p38 (MAP) kinase in vitro assay useful for evaluating the compounds of the invention.
The p38 MAP kinase inhibitory activity of compounds of this invention in vitro was determined by measuring the transfer of the γ-phosphate from γ-^33P-ATP by p-38 kinase to Myelin Basic Protein (MBP), using a minor modification of the method described in Ahn, et al., J. Biol. Chem. 266:4220-4227 (1991).
The phosphorylated form of the recombinant p38 MAP kinase was co-expressed with SEK-1 and MEKK in E. Coli (see, Khokhlatchev, et al., J. Biol. Chem. 272:11057-11062 (1997)) and then purified by affinity chromatography using a Nickel column.
The phosphorylated p38 MAP kinase was diluted in kinase buffer (20 mM 3-(N-morpholino)propanesulfonic acid, pH 7.2, 25 mM β-glycerol phosphate, 5 mM ethylene glycol-bis(beta-aminoethyl ether)-N,N,N′,N′-tetraacetic acid, 1 mM sodium ortho-vanadate, 1 mM dithiothreitol, 40 mM magnesium chloride). Test compound dissolved in DMSO or only DMSO (control) was added and the samples were incubated for 10 min at 30° C. The kinase reaction was initiated by the addition of a substrate cocktail containing MBP and γ-^33P-ATP. […] The phosphorylated MBP was then separated from the residual γ-^33P-ATP using a phosphocellulose membrane (Millipore, Bedfrod, Mass.) and quantitated using a scintillation counter (Packard, Meriden, Conn.).

T1 sequence (Q16539 whole entry): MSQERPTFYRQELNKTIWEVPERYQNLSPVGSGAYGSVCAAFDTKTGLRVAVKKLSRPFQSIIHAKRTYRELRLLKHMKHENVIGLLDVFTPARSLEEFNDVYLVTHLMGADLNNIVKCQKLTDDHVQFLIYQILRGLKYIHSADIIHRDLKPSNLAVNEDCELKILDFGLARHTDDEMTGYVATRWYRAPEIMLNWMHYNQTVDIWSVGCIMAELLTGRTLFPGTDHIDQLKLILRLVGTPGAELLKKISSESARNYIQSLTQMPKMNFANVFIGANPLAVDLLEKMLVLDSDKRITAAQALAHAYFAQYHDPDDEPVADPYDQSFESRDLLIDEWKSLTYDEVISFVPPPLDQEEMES

Broadly, the IC50 is the concentration that gives 50% inhibition. As to `CNC(=O)c1ccc(C)c(-c2cc3[nH]nc(N4CCCCC4)c3n(C)c2=O)c1` [Compound 8, 4,N-Dimethyl-3-(4-methyl-5-oxo-3-piperidin-1-yl-4,5-dihydro-1H-pyrazolo[4,3-b]pyridin-6-yl)-benzamide], the IC50 was roughly 3 nM.
